According to US20250339401A1, “METHODS AND MATERIALS FOR TREATMENT OF NEISSERIA GONORRHOEAE INFECTION” (Purdue Research Foundation, priority 2021, published 2025):
Converted amounts (≈) assume the structure as drawn.

What was measured:
Assay type in all cases: cell-based
[1] = tested on: Neisseria gonorrhoeae 175; assay: MIC broth microdilution, N. gonorrhoeae 175
Experimental: (§1) The minimum inhibitory concentrations (MICs) of the tested compounds and control drugs; Azithromycin, Cefixime and Tetracycline (antibiotics) were determined using the broth microdilution method as described in previous reports with minor modifications against clinically-relevant Neisseria gonorrhea strains. Strains were grown on Brucella broth supplemented with yeast extract, neopeptone, hematin, pyridoxal and NAD at 37° C. for 24 hours in presence of 5% CO2. […] Compounds and control drugs were added in the first row of the 96-well plates and serially diluted with media containing bacteria. Plates were then, incubated aerobically at 37° C. in the presence of 5% CO2 for 24 hours.

[2] = tested on: Neisseria gonorrhoeae 166; assay: MIC broth microdilution, N. gonorrhoeae 166
Experimental: as §1

[3] = tested on: Neisseria gonorrhoeae 178; assay: MIC broth microdilution, N. gonorrhoeae 178
Experimental: as §1

[4] = tested on: Neisseria gonorrhoeae 167; assay: MIC broth microdilution, N. gonorrhoeae 167
Experimental: as §1

[5] = tested on: Neisseria gonorrhoeae 214; assay: MIC broth microdilution, N. gonorrhoeae 214
Experimental: as §1

[6] = tested on: Neisseria gonorrhoeae 202; assay: MIC broth microdilution, N. gonorrhoeae 202
Experimental: as §1

[7] = tested on: Neisseria gonorrhoeae 171; assay: MIC broth microdilution, N. gonorrhoeae 171
Experimental: as §1

[8] = tested on: Neisseria gonorrhoeae 194; assay: MIC broth microdilution, N. gonorrhoeae 194
Experimental: as §1

[9] = tested on: Neisseria gonorrhoeae 172; assay: MIC broth microdilution, N. gonorrhoeae 172
Experimental: as §1

[10] = tested on: Neisseria gonorrhoeae 170; assay: MIC broth microdilution, N. gonorrhoeae 170
Experimental: as §1

[11] = tested on: Neisseria gonorrhoeae 165; assay: MIC broth microdilution, N. gonorrhoeae 165
Experimental: as §1

[12] = tested on: Neisseria gonorrhoeae isolate 191; assay: MIC broth microdilution, initial screening against N. gonorrhoeae isolate 191; conditions: 24 hours, 37° C., 5% CO2
Experimental: as §1

[13] = tested on: Neisseria gonorrhoeae 188; assay: MIC broth microdilution, N. gonorrhoeae 188
Experimental: as §1

[14] = tested on: Neisseria gonorrhoeae 169; assay: MIC broth microdilution, N. gonorrhoeae 169
Experimental: as §1

Row | MIC [1] [µg/mL] | MIC [2] [µg/mL] | MIC [3] [µg/mL] | MIC [4] [µg/mL] | MIC [5] [µg/mL] | MIC [6] [µg/mL] | MIC [7] [µg/mL] | MIC [8] [µg/mL] | MIC [9] [µg/mL] | MIC [10] [µg/mL] | MIC [11] [µg/mL] | MIC (Minimum inhibitory concentration) [12] | MIC [13] [µg/mL] | MIC [14] [µg/mL] | SMILES
1 | 16 (≈ 21.4 µM) | 2 (≈ 2.67 µM) | 1 (≈ 1.34 µM) | 16 (≈ 21.4 µM) | 0.5 (≈ 0.668 µM) | 32 (≈ 42.7 µM) | 0.25 (≈ 0.334 µM) | 1 (≈ 1.34 µM) | > 128 | 1 (≈ 1.34 µM) | 1 (≈ 1.34 µM) | >128 | 2 (≈ 2.67 µM) | 1 (≈ 1.34 µM) | CC[C@H]1OC(=O)[C@H](C)[C@@H](O[C@H]2C[C@@](C)(OC)[C@@H](O)[C@H](C)O2)[C@H](C)[C@@H](O[C@@H]2O[C@H](C)C[C@H](N(C)C)[C@H]2O)[C@](C)(O)C[C@@H](C)CN(C)[C@H](C)[C@@H](O)[C@]1(C)O [Azithromycin]
2 | 0.03 (≈ 0.0662 µM) | 0.5 (≈ 1.1 µM) | 0.25 (≈ 0.551 µM) | 0.06 (≈ 0.132 µM) | 0.25 (≈ 0.551 µM) | 0.03 (≈ 0.0662 µM) | 0.25 (≈ 0.551 µM) | 1 (≈ 2.21 µM) | 0.06 (≈ 0.132 µM) | 0.25 (≈ 0.551 µM) | 0.25 (≈ 0.551 µM) | 0.06 | 0.25 (≈ 0.551 µM) | 0.25 (≈ 0.551 µM) | C=CC1=C(C(=O)O)N2C(=O)[C@@H](NC(=O)/C(=N\OCC(=O)O)c3csc(N)n3)[C@H]2SC1 [Cefixime]

Row | SMILES | MIC [1] [µg/mL] | MIC [2] [µg/mL] | MIC [3] [µg/mL] | MIC [4] [µg/mL] | MIC [5] [µg/mL] | MIC [6] [µg/mL] | MIC [7] [µg/mL] | MIC [8] [µg/mL] | MIC [9] [µg/mL] | MIC [10] [µg/mL] | MIC [11] [µg/mL] | MIC (Minimum inhibitory concentration) [12] | MIC [13] [µg/mL] | MIC [14] [µg/mL]
3 | CN(C)[C@@H]1C(O)=C(C(N)=O)C(=O)[C@@]2(O)C(O)=C3C(=O)c4c(O)cccc4[C@@](C)(O)[C@H]3C[C@@H]12 [Tetracycline] | 1 (≈ 2.25 µM) | 2 (≈ 4.5 µM) | 16 (≈ 36 µM) | 1 (≈ 2.25 µM) | 4 (≈ 9 µM) | 1 (≈ 2.25 µM) | 2 (≈ 4.5 µM) | 1 (≈ 2.25 µM) | 1 (≈ 2.25 µM) | 4 (≈ 9 µM) | 8 (≈ 18 µM) | 1 | 2 (≈ 4.5 µM) | 4 (≈ 9 µM)
